Experimental data as given in US12281225B2, “Process for preparing stable polymers containing vinylimidazole” (BASF SE, priority 2018, dated 2025).

How the values were obtained:
[1] = Analysis of active substance: preservative concentration before and after storage in VI-containing polymer solution; format: physicochemical; details: for active-substance concentration, 0 d, RT: before storage; for active-substance concentration, 14 d, 40° C.: storage 14 d at 40° C.; for active-substance concentration, 28 d, 40° C.: storage 28 d at 40° C.; for active-substance concentration, 60 d 40° C.: storage 60 d at 40° C.
Method: Stability of Preservatives in VI-Containing Polymers:
The following stabilizers for VI-containing polymers (here: aqueous solution of a copolymer of vinylpyrrolidone and vinylimidazole) were tested.
MIT, BIT, CMIT, OIT, DCOIT and iodopropynyl butyl carbamate were determined by RP chromatography with UV detection after dilution of the sample to be tested. An RP18 column was used for this purpose, with an eluent composed of an acid-methanol mixture under isocratic conditions.

[2] = system: Yeast: Candida albicans, Candida valida, Rhodotorula rura, Saccharomyces cerevisiae; test: Preservation test with periodic inoculation, yeast assessment; format: cell-based; details: sample stored 60 d at 40° C.
Method: Microbiological results at the start (freshly formulated, i.e. 4-week test series is started immediately) and after 60 days of storage at 40° C. (i.e. the 4-week microbial testing is started with the sample stored at 40° C. for 60 days)
The test described below is carried out in order to ascertain the preserving effect of chemical preservatives in aqueous products and systems, the principle of the described method reflecting the efficacy of chemical preservatives with respect to pot-maintenance of aqueous products/systems under conditions corresponding to the use of laundry products/consumer products by the consumer. For this purpose, the preservatives to be tested are added in those concentrations which correspond to from the literature or to the manufacturer data from the suppliers (e.g. Thor, Speyer). In said test, our orientation was toward the upper range, which, with the exception of VI-containing polymers, had always led to excellent results in the case of aqueous polymers for laundry.
A constant microorganism load is achieved by periodic inoculation of the test batches. Before the swabs of each batch made respectively immediately in parallel with the inoculation. The assessment is made on the basis of the microbial growth of the streaks.
When carrying out said tests, 25 g of the polymer to be tested are weighed in each case into a vessel with a screw cap. The preservatives to be tested are each added in separate batches according to the specified use concentrations. An unpreserved product sample was used in each case for the growth control. Two days after the addition of the preservative, the samples are infected with 0.5 ml of inoculum (2% w/w). The titer of this inoculant solution is 10^9 organisms per ml. The following microorganisms are the test organisms for the preservation test:
• Escherichia coli • Staphylococcus aureus • Pseudomonas aeruginosa • Pseudomonas putida • Burkholderia cepacia • Alcaligenes faecalis Yeast: • Candida albicans • Candida valida • Rhodotorula rura • Saccharomyces cerevisiae
The test batches are inoculated four times altogether and once a week and are streaked on an agar plate once a week; the first streaking is done immediately before the new inoculation. Microbial growth on the agar surface is assessed after a three-day incubation at 25° C. As a precaution, negative swabs are additionally observed for a further three days and reassessed. The preserving effect is effected in a semiquantitative method via the growth of the individual streaks in accordance with the assessment from − via + to +++. The preservative result is repeatedly demonstrably robust, i.e. +++− defines the microbial growth.
When assessing the results, it is assumed that a preservative can be regarded as good if there are batches under the above-described laboratory conditions for a period of four weeks without microbial invasion of the sample, and that, even after the fourth inoculation, no microbial attacks occur growth can be identified. • −−: no growth • −: slight growth, max. 100 colonies • 0: moderate growth, max. 400 colonies • +: uniform growth with individual colonies still easily identifiable • ++: strong growth; too many colonies to be counted, already some extensive growth

[3] = Iodine color number according to DIN 6162:2014-09; format: physicochemical
[4] = Polymer P5 (HP56) with stabilizer

Substance: benzalkonium chloride [BAC]
- active-substance concentration, 0 d, RT ([1]; in Polymer P1): 1000 ppm
- active-substance concentration, 14 d, 40° C. ([1]; in Polymer P1): 990 ppm
- active-substance concentration, 28 d, 40° C. ([1]; in Polymer P1): 990 ppm
- active-substance concentration, 60 d 40° C. ([1]; in Polymer P1): 970 ppm
- active-substance concentration, 0 d, RT ([1]; in Polymer P2): 1000 ppm
- active-substance concentration, 14 d, 40° C. ([1]; in Polymer P2): 990 ppm
- active-substance concentration, 28 d, 40° C. ([1]; in Polymer P2): 990 ppm
- active-substance concentration, 60 d 40° C. ([1]; in Polymer P2): 970 ppm
- active-substance concentration, 0 d, RT ([1]; in Polymer P3): 1000 ppm
- active-substance concentration, 14 d, 40° C. ([1]; in Polymer P3): 970 ppm
- active-substance concentration, 28 d, 40° C. ([1]; in Polymer P3): 973 ppm
- active-substance concentration, 60 d 40° C. ([1]; in Polymer P3): 967 ppm
- active-substance concentration, 0 d, RT ([1]; in Polymer P4): 1000 ppm
- active-substance concentration, 14 d, 40° C. ([1]; in Polymer P4): 1000 ppm
- active-substance concentration, 28 d, 40° C. ([1]; in Polymer P4): 991 ppm
- active-substance concentration, 60 d 40° C. ([1]; in Polymer P4): 977 ppm
- active-substance concentration, 0 d, RT ([1]; in Polymer P5 (HP56)): 1000 ppm
- active-substance concentration, 14 d, 40° C. ([1]; in Polymer P5 (HP56)): 990 ppm
- active-substance concentration, 28 d, 40° C. ([1]; in Polymer P5 (HP56)): 90 ppm
- active-substance concentration, 60 d 40° C. ([1]; in Polymer P5 (HP56)): 970 ppm
- active-substance concentration, 0 d, RT ([1]; in Polymer P6): 1000 ppm
- active-substance concentration, 14 d, 40° C. ([1]; in Polymer P6): 990 ppm
- active-substance concentration, 28 d, 40° C. ([1]; in Polymer P6): 981 ppm
- active-substance concentration, 60 d 40° C. ([1]; in Polymer P6): 976 ppm
- active-substance concentration, 0 d, RT ([1]; in Polymer P7): 1000 ppm
- active-substance concentration, 14 d, 40° C. ([1]; in Polymer P7): 988 ppm
- active-substance concentration, 28 d, 40° C. ([1]; in Polymer P7): 985 ppm
- active-substance concentration, 60 d 40° C. ([1]; in Polymer P7): 979 ppm
- active-substance concentration, 0 d, RT ([1]; in Polymer P8): 1000 ppm
- active-substance concentration, 14 d, 40° C. ([1]; in Polymer P8): 990 ppm
- active-substance concentration, 28 d, 40° C. ([1]; in Polymer P8): 990 ppm
- active-substance concentration, 60 d 40° C. ([1]; in Polymer P8): 970 ppm
- active-substance concentration, 0 d, RT ([1]; in Polymer P9): 1000 ppm
- active-substance concentration, 14 d, 40° C. ([1]; in Polymer P9): 990 ppm
- active-substance concentration, 28 d, 40° C. ([1]; in Polymer P9): 985 ppm
- active-substance concentration, 60 d 40° C. ([1]; in Polymer P9): 975 ppm
- 60 d 40° C., yeast assess., 4th inoculation ([2]; Polymer P1): − (slight growth, max. 100 colonies)
- 60 d 40° C., yeast assess., 4th inoculation ([2]; Polymer P2): − (slight growth, max. 100 colonies)
- 60 d 40° C., yeast assess., 4th inoculation ([2]; Polymer P3): − (slight growth, max. 100 colonies)
- Iodine color number, 60 d 40° C. ([3]; Polymer P1 with stabilizer): 2.8
- Iodine color number, start ([3]; Polymer P1 with stabilizer): 2.6
- Iodine color number, 60 d 40° C. ([3]; Polymer P2 with stabilizer): 3.2
- Iodine color number, start ([3]; Polymer P2 with stabilizer): 3.0
- Iodine color number, 60 d 40° C. ([3]; Polymer P3 with stabilizer): 3.3
- Iodine color number, start ([3]; Polymer P3 with stabilizer): 3.2
- Iodine color number, 60 d 40° C. ([3]; Polymer P4 with stabilizer): 3.3
- Iodine color number, start ([3]; Polymer P4 with stabilizer): 3.2
- Iodine color number, 60 d 40° C. [3, 4]: 3.3
- Iodine color number, start [3, 4]: 3.3
- Iodine color number, 60 d 40° C. ([3]; Polymer P6 with stabilizer): 3.4
- Iodine color number, start ([3]; Polymer P6 with stabilizer): 3.3
- Iodine color number, 60 d 40° C. ([3]; Polymer P7 with stabilizer): 3.4
- Iodine color number, start ([3]; Polymer P7 with stabilizer): 3.3
- Iodine color number, 60 d 40° C. ([3]; Polymer P8 with stabilizer): 3.4
- Iodine color number, start ([3]; Polymer P8 with stabilizer): 3.3
- Iodine color number, 60 d 40° C. ([3]; Polymer P9 with stabilizer): 4.0
- Iodine color number, start ([3]; Polymer P9 with stabilizer): 3.7
